Numbered stars: 1 amine (or outer) side, 2 acyl side, 3 side chain; on linkers, the order of the positions; unused ones are H or OH. Bridge positions count the residues as written; N and C are the ends. Square brackets hold non-standard residues; d marks the D form. Peptide text beside a SMILES is read from it. * marks the point of attachment. hPhe(3-Cl-4-CF3) = N[C@@H](CCc1ccc(C(F)(F)F)c(Cl)c1)C(=O)O; hPhe(3-F,4-CF3) = N[C@@H](CCc1ccc(C(F)(F)F)c(F)c1)C(=O)O; NMePhe(3-CN) = CN[C@@H](Cc1cccc(C#N)c1)C(=O)O; NMePhe(4-Cl) = CN[C@@H](Cc1ccc(Cl)cc1)C(=O)O; NMePhe(2-Cl) = CN[C@@H](Cc1ccccc1Cl)C(=O)O; X79 = O=C([C@H](Cc1ccc(Cl)s1)N[*:1])[*:2]; Phe(3-I) = N[C@@H](Cc1cccc(I)c1)C(=O)O; NMe3Pal = CN[C@@H](Cc1cccnc1)C(=O)O; NMeCha = CN[C@@H](CC1CCCCC1)C(=O)O; NMeChg = CN[C@H](C(=O)O)C1CCCCC1; NMeD = CN[C@@H](CC(=O)O)C(=O)O; NMeL = CN[C@@H](CC(C)C)C(=O)O; NMeV = CN[C@H](C(=O)O)C(C)C; d(β3hA) = C[C@@H](N)CC(=O)O; Morpholide = C1CN(*)CCO1; NMeA = CN[C@@H](C)C(=O)O; NMeAib = CNC(C)(C)C(=O)O; Nle = CCCC[C@H](N)C(=O)O; Piperidide = C1CCN(*)CC1; Pra = C#CC[C@H](N)C(=O)O; Pyrrolidide = C1CCN(*)C1; Ac5c = NC1(C(=O)O)CCCC1; Aze = O=C(O)[C@@H]1CCN1; Ac4c = NC1(C(=O)O)CCC1; Aib = CC(C)(N)C(=O)O; Sar = CNCC(=O)O

In the assay the test system is Human pancreatic cancer cell line AsPC-1 (G12D mutation Kras). Briefly: AsPC-1 cell growth inhibition (AsPC-1 CGI). As to conditions: read-out: AsPC-1 cell growth inhibition, 50% growth inhibitory concentration (IC50 value); 96 hours, CellTiter-Glo, values classified in ranges. It counts as cell-based. (ATP-based viability assays read luminescence as a measure of living cells.)
Description: Test compounds were serially dilated with dimethyl sulfoxide, and 200 nL was then dispensed to a U-bottom 96-well plate using Labcyte Echo. […] The cell suspension was dispensed to a. plate containing a test compound at 100 μL per well and incubated at 37° C. in a 5% carbon dioxide gas incubator. 96 hours later, 80 μL of CellTiter-Glo (Promega) was added to each well and fluorescence was measured.
Regarding `CC[C@H](C)[C@@H]1NC(=O)[C@H](C)N(C)C(=O)C[C@@H](C(=O)N2CCCC2)N(C)C(=O)[C@H](C(C)C)N(C)C(=O)C(C)(C)NC(=O)[C@H](Cc2ccccc2Cl)N(C)C(=O)[C@H](CCc2ccc(C(F)(F)F)c(Cl)c2)NC(=O)CN(C)C(=O)[C@H](CC2CCCCC2)N(C)C(=O)CN(C)C(=O)CN(C)C1=O` [Compound 426] ([NMeA]I[Sar][Sar][NMeCha][Sar][hPhe(3-Cl-4-CF3)][NMePhe(2-Cl)][Aib][NMeV][NMeD]-Pyrrolidide; lactam N-11), the IC50 is over 500 nM.
With `CC[C@H](C)[C@@H]1NC(=O)[C@H](C)N(C)C(=O)C[C@@H](C(=O)N2CCOCC2)N(C)C(=O)[C@H](C2CCCCC2)N(C)C(=O)C2(CCCC2)NC(=O)[C@H](Cc2cccnc2)N(C)C(=O)[C@H](CCc2ccc(C(F)(F)F)c(Cl)c2)NC(=O)CN(C)C(=O)[C@H](CC2CCCCC2)N(C)C(=O)[C@@H]2CCN2C(=O)CN(C)C1=O` [Compound 1703] ([NMeA]I[Sar][Aze][NMeCha][Sar][hPhe(3-Cl-4-CF3)][NMe3Pal][Ac5c][NMeChg][NMeD]-Morpholide; lactam N-11) the figure was over 500 nM; with `C#CC[C@@H]1NC(=O)[C@H](CC(C)C)N(C)C(=O)C[C@@H](C)NC(=O)[C@H](CC(C)C)N(C)C(=O)C2(CCCC2)NC(=O)[C@@H]2CCCN2C(=O)[C@H](CCc2ccc(C(F)(F)F)c(F)c2)NC(=O)CN(C)C(=O)[C@H](CC2CCCCC2)N(C)C(=O)CN(C)C(=O)CN(C)C1=O` [Compound 1533] (cyclo([Ac5c][NMeL][d(β3hA)][NMeL][Pra][Sar][Sar][NMeCha][Sar][hPhe(3-F,4-CF3)]P)), over 500 nM.
With `CCCC[C@@H]1NC(=O)[C@H](Cc2ccc(Cl)s2)NC(=O)CN(C)C(=O)[C@H](Cc2ccc(Cl)cc2)N(C)C(=O)CN(C)C(=O)CN(C)C(=O)[C@H]([C@@H](C)CC)NC(=O)[C@H](CC(C)C)N(C)C(=O)C[C@@H](C(=O)N2CCCCC2)N(C)C(=O)[C@H](CC(C)C)NC(=O)C(C)(C)N(C)C1=O` [Compound 1318] ([NMeL]I[Sar][Sar][NMePhe(4-Cl)][Sar][X79][Nle][NMeAib]L[NMeD]-Piperidide; lactam N-11) the figure was over 500 nM.
Regarding `CC[C@H](C)[C@@H]1NC(=O)[C@H](CC(C)C)N(C)C(=O)C[C@@H](C(=O)N2CCCCC2)N(C)C(=O)[C@H](CC(C)C)N(C)C(=O)C2(CCCC2)NC(=O)[C@@H]2CCCN2C(=O)[C@H](CCc2ccc(C(F)(F)F)c(F)c2)NC(=O)CN(C)C(=O)[C@H](Cc2ccc(Cl)cc2)N(C)C(=O)CN(C)C(=O)CN(C)C1=O` [Compound 1061] ([NMeL]I[Sar][Sar][NMePhe(4-Cl)][Sar][hPhe(3-F,4-CF3)]P[Ac5c][NMeL][NMeD]-Piperidide; lactam N-11), the IC50 is over 500 nM.
With `CC[C@H](C)[C@@H]1NC(=O)[C@H](CC(C)C)N(C)C(=O)C[C@@H](C(=O)N2CCCCC2)N(C)C(=O)[C@H](C(C)C)N(C)C(=O)C2(CCCC2)NC(=O)[C@@H]2CCCN2C(=O)[C@H](CCc2ccc(C(F)(F)F)c(Cl)c2)NC(=O)CN(C)C(=O)[C@H](Cc2cccc(C#N)c2)N(C)C(=O)CN(C)C(=O)CN(C)C1=O` [Compound 710] ([NMeL]I[Sar][Sar][NMePhe(3-CN)][Sar][hPhe(3-Cl-4-CF3)]P[Ac5c][NMeV][NMeD]-Piperidide; lactam N-11) the figure was over 500 nM; with `C#CC[C@@H]1NC(=O)[C@H](Cc2cccc(I)c2)NC(=O)CN(C)C(=O)[C@H](Cc2ccc(Cl)cc2)N(C)C(=O)[C@@H]2CCN2C(=O)[C@H](C)N(C)C(=O)[C@H]([C@@H](C)CC)NC(=O)[C@H](CC(C)C)N(C)C(=O)C[C@@H](C(=O)N2CCCCC2)N(C)C(=O)[C@H](CC(C)C)NC(=O)C(C)(C)N(C)C1=O` [Compound 1428] ([NMeL]I[NMeA][Aze][NMePhe(4-Cl)][Sar][Phe(3-I)][Pra][NMeAib]L[NMeD]-Piperidide; lactam N-11), over 500 nM.
The result for `CC[C@H](C)[C@@H]1NC(=O)[C@H](CC(C)C)N(C)C(=O)C[C@@H](C)NC(=O)[C@H](CC(C)C)N(C)C(=O)C2(CCC2)NC(=O)[C@@H]2CCCN2C(=O)[C@H](CCc2ccc(C(F)(F)F)c(F)c2)NC(=O)CN(C)C(=O)[C@H](CC2CCCCC2)N(C)C(=O)CN(C)C(=O)CN(C)C1=O` [Compound 133] (cyclo([Ac4c][NMeL][d(β3hA)][NMeL]I[Sar][Sar][NMeCha][Sar][hPhe(3-F,4-CF3)]P)) reads over 500 nM.
With `CC[C@H](C)[C@@H]1NC(=O)[C@H](C)N(C)C(=O)C[C@@H](C(=O)N2CCCC2)N(C)C(=O)[C@H](C(C)C)N(C)C(=O)C2(CCC2)NC(=O)[C@H](Cc2ccccc2Cl)N(C)C(=O)[C@H](CCc2ccc(C(F)(F)F)c(Cl)c2)NC(=O)CN(C)C(=O)[C@H](CC2CCCCC2)N(C)C(=O)CN(C)C(=O)CN(C)C1=O` [Compound 906] ([NMeA]I[Sar][Sar][NMeCha][Sar][hPhe(3-Cl-4-CF3)][NMePhe(2-Cl)][Ac4c][NMeV][NMeD]-Pyrrolidide; lactam N-11) the figure was over 500 nM.
